Data taken from publication PMC10741027, “Risk Assessment of Psychotropic Drugs on Mitochondrial Function Using In Vitro Assays” (Biomedicines, 2023).
Read-outs that look alike come from different tables or passages of the source.

Key:
HepG2 cells [1] = experiment: Glu/Gal assay: cellular ATP (CellTiter-Glo) after 24 h in glucose or galactose media; conditions: for AC50 / minimal effective concentration: Homo sapiens, HepG2, 24 h
[2] = literature values, plasma or serum of adult humans when possible; ref 68-88 (per drug, Table 2 Cmax Reference); cited from earlier work
HepG2 cells [3] = experiment: Acute extracellular flux (AEF) assay in intact HepG2 cells (Seahorse XFe96); type: cell-based, human
HepG2 cells [4] = test system: HepG2 cells; set-up: method as in PMID 18344530; conditions: 200 µM, not in Glu media; cited from earlier work
[5] = test system: rPFO permeabilized HepG2 cells; experiment: Mitochondrial respiratory complexes in rPFO permeabilized HepG2 cells (Seahorse XF); conditions: Homo sapiens, HepG2, read-out: Pyruvate Respiration AC50
CI [6] = test system: CI; set-up: method as in PMID 18344530; conditions: isolated mitochondria; read-out: CI inhibition IC50; cited from earlier work
complex I = test system: complex I; set-up: method as in PMID 31104106; conditions: 50 µM, 30 min incubation; cited from earlier work
CI-linked respiration = conditions: read-out: concentration inhibiting CI-linked respiration by 50%; rat liver isolated mitochondria; cited from earlier work
HepG2 cells [7] = test system: HepG2 cells
[8] = test system: rPFO permeabilized HepG2 cells
CI [9] = test system: CI; set-up: method as in PMID 21120605; conditions: 50 µM, 18 h incubation, CHO cells; cited from earlier work
[10] = test system: ADP-stimulated respiration; conditions: isolated rat liver mitochondria; cited from earlier work
liver mitochondria = test system: liver mitochondria; set-up: method as in PMID 1347214; conditions: rats fed 1% (w/w) for 75 days; cited from earlier work
[11] = Homo sapiens, HepG2, minimum effective concentration crossing vehicle control threshold, read-out: MEC ATP Production
[12] = Homo sapiens, HepG2, minimum effective concentration crossing vehicle control threshold, read-out: MEC OCR
[13] = Homo sapiens, HepG2, minimum effective concentration crossing vehicle control threshold, read-out: MEC Reserve Capacity
[14] = Homo sapiens, HepG2, concentration at which 50% maximum effect is observed, read-out: AC50 ATP Production
[15] = Homo sapiens, HepG2, concentration at which 50% maximum effect is observed, read-out: AC50 ECAR
[16] = Homo sapiens, HepG2, concentration at which 50% maximum effect is observed, read-out: AC50 OCR
[17] = Homo sapiens, HepG2, concentration at which 50% maximum effect is observed, read-out: AC50 Proton Leak
[18] = Homo sapiens, HepG2, concentration at which 50% maximum effect is observed, read-out: AC50 Reserve Capacity
[19] = Homo sapiens, HepG2, minimum effective concentration crossing vehicle control threshold, read-out: MEC ECAR
[20] = Homo sapiens, HepG2, read-out: AC50 ATP Production
[21] = Homo sapiens, HepG2, read-out: AC50 ECAR
[22] = Homo sapiens, HepG2, read-out: AC50 OCR
[23] = Homo sapiens, HepG2, read-out: AC50 Proton Leak
[24] = Homo sapiens, HepG2, read-out: AC50 Reserve Capacity
[25] = Homo sapiens, HepG2, read-out: MEC ATP Production
[26] = Homo sapiens, HepG2, read-out: MEC OCR

O=C1CC2(CCCC2)CC(=O)N1CCCCN1CCN(c2ncccn2)CC1 [Buspirone]
AC50 (HepG2 cells [1]; read-out: Gal AC50): 99 µM
minimal effective concentration (HepG2 cells [1]; read-out: Gal MEC): 35.7 µM
AC50 (HepG2 cells [1]; read-out: Glu AC50): > 100 µM
Cmax [2]: 3 nM
minimal effective concentration (HepG2 cells [3]; [11]): 80.9 µM
minimal effective concentration (HepG2 cells [3]; [12]): 4.83 µM
minimal effective concentration (HepG2 cells [3]; [13]): 8.57 µM
AC50 (HepG2 cells [3]; [14]): > 100 µM
AC50 (HepG2 cells [3]; [15]): > 100 µM
AC50 (HepG2 cells [3]; [16]): > 100 µM
AC50 (HepG2 cells [3]; [17]): > 100 µM
AC50 (HepG2 cells [3]; [18]): 43.7 µM
depletion (cytotoxicity) in Gal media (HepG2 cells [4]): 60%
AC50 [5]: > 100 µM
IC50 (CI [6]): 48 µM

CN1CCN(C2=Nc3cc(Cl)ccc3Nc3ccccc32)CC1 [Clozapine]
AC50 (HepG2 cells [1]; read-out: Gal AC50): 60.8 µM
minimal effective concentration (HepG2 cells [1]; read-out: Gal MEC): 44.4 µM
AC50 (HepG2 cells [1]; read-out: Glu AC50): 56.7 µM
minimal effective concentration (HepG2 cells [1]; read-out: Glu MEC): 34.1 µM
Cmax [2]: 220 nM
decrease of complex I activity (complex I): 85%
minimal effective concentration (HepG2 cells [3]; [11]): 37.3 µM
minimal effective concentration (HepG2 cells [3]; [19]): 20.2 µM
AC50 (HepG2 cells [3]; [14]): > 100 µM
AC50 (HepG2 cells [3]; [15]): > 100 µM

CNCCC(Oc1ccc(C(F)(F)F)cc1)c1ccccc1 (centres unmarked) [Fluoxetine]
AC50 (HepG2 cells [1]; read-out: Gal AC50): 17.5 µM
minimal effective concentration (HepG2 cells [1]; read-out: Gal MEC): 12.1 µM
AC50 (HepG2 cells [1]; read-out: Glu AC50): 13.3 µM
minimal effective concentration (HepG2 cells [1]; read-out: Glu MEC): 6.89 µM
Cmax [2]: 40 nM
minimal effective concentration (HepG2 cells [3]; [11]): 68.6 µM
minimal effective concentration (HepG2 cells [3]; [19]): 67.3 µM
minimal effective concentration (HepG2 cells [3]; [12]): 8.12 µM
minimal effective concentration (HepG2 cells [3]; [13]): 25.2 µM
AC50 (HepG2 cells [3]; [18]): 70.4 µM
IC50 (CI-linked respiration): 250 µM

O=C1Nc2ccc(Cl)cc2C(c2ccccc2Cl)=NC1O (centres unmarked) [Lorazepam]
AC50 (HepG2 cells [1]; read-out: Gal AC50): > 100 µM
AC50 (HepG2 cells [1]; read-out: Glu AC50): > 100 µM
Effect on cell viability / ATP in Glu and Gal media (in words) (HepG2 cells [7]): did not exhibit toxicity neither in glucose nor in galactose-grown cells
Most sensitive mechanism / response in permeabilized HepG2 assay (OCR) [8]: did not significantly inhibit any of the ETC complexes
Cmax [2]: 100 nM
AC50 (HepG2 cells [3]; [20]): > 100 µM
AC50 (HepG2 cells [3]; [21]): > 100 µM
AC50 (HepG2 cells [3]; [22]): > 100 µM
AC50 (HepG2 cells [3]; [23]): 15 µM
AC50 (HepG2 cells [3]; [24]): > 100 µM
minimal effective concentration (HepG2 cells [3]; [25]): 3.2 µM
minimal effective concentration (HepG2 cells [3]; [26]): 63.7 µM
minimal effective concentration (HepG2 cells [3]; Homo sapiens, HepG2, read-out: MEC Proton Leak): 3.14 µM

CN1c2ccccc2C(NCCCCCCC(=O)O)c2ccc(Cl)cc2S1(=O)=O (centres unmarked) [Tianeptine]
AC50 (HepG2 cells [1]; read-out: Gal AC50): 57.6 µM
minimal effective concentration (HepG2 cells [1]; read-out: Gal MEC): 41.8 µM
AC50 (HepG2 cells [1]; read-out: Glu AC50): > 100 µM
inhibition of CI activity (CI [9]): ~50%
AC50 (HepG2 cells [3]; [20]): > 100 µM
AC50 (HepG2 cells [3]; [21]): > 100 µM
AC50 (HepG2 cells [3]; [22]): > 100 µM
AC50 (HepG2 cells [3]; [23]): > 100 µM
AC50 (HepG2 cells [3]; [24]): 21.6 µM
minimal effective concentration (HepG2 cells [3]; [25]): 40.3 µM
minimal effective concentration (HepG2 cells [3]; [26]): 5.5 µM
minimal effective concentration (HepG2 cells [3]; Homo sapiens, HepG2, read-out: MEC Reserve Capacity): 0.182 µM

CN1CCN(CCCN2c3ccccc3Sc3ccc(C(F)(F)F)cc32)CC1 [Trifluoperazine]
Effect on cell viability / ATP in Glu and Gal media (in words) (HepG2 cells [1]; 24 h incubation, top concentration): complete loss of cell viability in both media
AC50 (HepG2 cells [1]; read-out: Gal AC50): 1.13 µM
minimal effective concentration (HepG2 cells [1]; read-out: Gal MEC): 0.8 µM
AC50 (HepG2 cells [1]; read-out: Glu AC50): 1 µM
minimal effective concentration (HepG2 cells [1]; read-out: Glu MEC): 0.75 µM
inhibition of ADP-stimulated respiration (concentration) [10]: 66 µM
Cmax [2]: 5 nM
minimal effective concentration (HepG2 cells [3]; [13]): < 0.002 µM
AC50 (HepG2 cells [3]; [18]): 0.157 µM
minimal effective concentration (HepG2 cells [3]; minimum effective concentration crossing vehicle control threshold, read-out: MEC Reserve Capacity): <0.002 µM

CCCC(CCC)C(=O)O [Valproic acid]
AC50 (HepG2 cells [1]; read-out: Gal AC50): > 10000 µM
AC50 (HepG2 cells [1]; read-out: Glu AC50): > 10000 µM
Cmax [2]: 367000 nM
decrease in the respiration rate with substrates feeding CI and CII (liver mitochondria): 30%
minimal effective concentration (HepG2 cells [3]; [11]): 5200 µM
minimal effective concentration (HepG2 cells [3]; [19]): 2600 µM
minimal effective concentration (HepG2 cells [3]; [12]): 520 µM
minimal effective concentration (HepG2 cells [3]; Homo sapiens, HepG2, minimum effective concentration crossing vehicle control threshold, read-out: MEC Proton Leak): 1140 µM
minimal effective concentration (HepG2 cells [3]; [13]): 3090 µM
AC50 (HepG2 cells [3]; [14]): > 10000 µM
AC50 (HepG2 cells [3]; [15]): > 10000 µM
AC50 (HepG2 cells [3]; [16]): > 10000 µM
AC50 (HepG2 cells [3]; [17]): 9180 µM
AC50 (HepG2 cells [3]; [18]): > 10000 µM
AC50 [5]: > 10000 µM
